Test results published in patent publication US12127557B2.
Where two headings read alike, the source gives them in different places.

Assays:
[1] = tested on: Pythium ultimum; assay type: cell-based; settings: no enzyme, 2 days
[2] = tested on: Fusarium graminearum; assay type: cell-based; settings: no enzyme, 5 days

## mancozeb
[1]; mancozeb 0.5 mg/l
  Reduction in P. ultimum growth (−) enzyme: 2% f
[1]; mancozeb 2 mg/l
  Reduction in P. ultimum growth (−) enzyme: 10% e
[1]; mancozeb 5 mg/l
  Reduction in P. ultimum growth (−) enzyme: 16% e
[1]; mancozeb 10 mg/l
  Reduction in P. ultimum growth (−) enzyme: 23% d
[2]; mancozeb 0.5 mg/l
  Reduction in F. graminearum growth (−) enzyme: 6% cd
[2]; mancozeb 2 mg/l
  Reduction in F. graminearum growth (−) enzyme: 1% d
[2]; mancozeb 5 mg/l
  Reduction in F. graminearum growth (−) enzyme: 17% cd
[2]; mancozeb 10 mg/l
  Reduction in F. graminearum growth (−) enzyme: 26% bcd
